According to US9040713B2, “Methods of managing blood sugar levels and compositions related thereto” (EMORY UNIVERSITY, priority 2010, dated 2015):

Tests used:
IR [1] = biological target: T1, IR (Homo sapiens, UniProt P06213); test: IR phosphorylation in transfected HEK293 cells (Western blot); assay type: cell-based; parameters: expressed in transfected cells; host or cells: HEK293; settings: 4524-E7 5 μM, insulin 100 nM
Target sequence in this assay (P06213 28-1382): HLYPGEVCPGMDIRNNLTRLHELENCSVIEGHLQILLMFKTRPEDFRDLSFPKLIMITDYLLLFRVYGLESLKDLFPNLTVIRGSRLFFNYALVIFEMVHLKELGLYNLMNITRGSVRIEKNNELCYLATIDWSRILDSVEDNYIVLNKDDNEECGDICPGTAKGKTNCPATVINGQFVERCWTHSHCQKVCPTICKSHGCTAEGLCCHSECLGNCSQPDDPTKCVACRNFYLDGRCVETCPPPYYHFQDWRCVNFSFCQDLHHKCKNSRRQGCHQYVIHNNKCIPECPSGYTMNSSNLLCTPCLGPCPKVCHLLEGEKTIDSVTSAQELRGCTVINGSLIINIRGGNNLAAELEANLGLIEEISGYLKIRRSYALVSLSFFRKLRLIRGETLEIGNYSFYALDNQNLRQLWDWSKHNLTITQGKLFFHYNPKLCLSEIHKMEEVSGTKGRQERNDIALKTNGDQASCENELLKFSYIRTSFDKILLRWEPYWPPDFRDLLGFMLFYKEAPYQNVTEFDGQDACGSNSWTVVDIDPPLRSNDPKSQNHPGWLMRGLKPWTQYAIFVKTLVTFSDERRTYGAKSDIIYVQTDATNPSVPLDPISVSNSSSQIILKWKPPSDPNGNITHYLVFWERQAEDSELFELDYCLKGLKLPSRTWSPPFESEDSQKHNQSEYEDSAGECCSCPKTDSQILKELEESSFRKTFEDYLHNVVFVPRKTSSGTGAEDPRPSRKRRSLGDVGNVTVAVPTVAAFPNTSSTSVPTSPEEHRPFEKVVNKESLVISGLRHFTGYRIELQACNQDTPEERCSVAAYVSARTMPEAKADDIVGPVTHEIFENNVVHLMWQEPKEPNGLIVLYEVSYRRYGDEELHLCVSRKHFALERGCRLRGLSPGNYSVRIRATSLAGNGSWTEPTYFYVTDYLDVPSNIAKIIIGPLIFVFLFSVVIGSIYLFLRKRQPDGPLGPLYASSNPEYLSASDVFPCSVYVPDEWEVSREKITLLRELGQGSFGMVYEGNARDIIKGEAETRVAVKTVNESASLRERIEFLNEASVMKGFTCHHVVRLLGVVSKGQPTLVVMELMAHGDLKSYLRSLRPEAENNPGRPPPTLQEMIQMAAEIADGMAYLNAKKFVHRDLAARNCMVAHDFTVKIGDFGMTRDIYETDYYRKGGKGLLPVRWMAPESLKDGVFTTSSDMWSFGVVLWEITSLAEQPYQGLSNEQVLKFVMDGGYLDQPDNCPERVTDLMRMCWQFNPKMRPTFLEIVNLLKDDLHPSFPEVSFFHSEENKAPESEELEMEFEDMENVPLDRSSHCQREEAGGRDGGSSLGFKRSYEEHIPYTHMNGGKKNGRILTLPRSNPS
Experimental: Cells were lysed, and IR phosphorylations were tested by ELISA. The IR phosphorylation activities of the tested compounds were expressed as a percentage of the vehicle. […] The cell lysates were analyzed by immunoblotting with various indicated antibodies. The phosphorylated IR was immunoprecipitated using PY20 and analyzed by immunoblotting with anti-IR13 antibody. […] The phosphorylation of each receptor was determined by Western blot using specific antibodies as indicated. […] Then the cells were lysated and the transfected receptor fused to His tag were pulled down with Ni+ beads, followed by western blot against anti-p-Tyr and anti-His. The cell lysates were tested with anti-p-Akt and anti-Akt.
Whether 4524-E7 can activate other receptors of RTK family was tested. […] To further explore the specificity, several hybrid recombinant RTKs were generated by replacing IGFR and EGFR's extracellular domain (ECD) with IR's ECD. Moreover, IGFR's intracellular domain (ICD) was substituted with IR's ICD, and the His-tagged receptors were transfected into CHO cells and treated with 4524-E7 for 30 min.

C57B5L/6J mice = test: Hyperinsulinemic-euglycemic clamp; assay type: in vivo, mouse; settings: 5 mg/kg oral 1 h before clamp
Experimental: (A) 4524-E7 provokes IR phosphorylation in various tissues of mice. Three-month-old C57BL/6J mice were starved for 12 h and then dosed with vehicle (0.5% methylcellulose) or 4524-E7 (20 mg/kg). Cell lysates from liver, muscle, and WAT were prepared at 3, 4, and 5 h after drug administration and analyzed by immunoblotting. (B) Basal and insulin-stimulated hepatic glucose production rates were measured by hyperinsulinemic-euglycemic clamp. […] (C) Hypoglycemic effect of 4524-E7 in C57BL/6J mice. C57BL/6J mice were starved for 12 h and then orally administrated with vehicle (0.5% methylcellulose) or 4524-E7 (5 mg/kg). Blood glucose was monitored at different time points as indicated (n=8, *: P<0.05, two-way ANOVA). (D) Hypoglycemic effect in db/db mice. db/db mice were starved for 12 h and then orally injected with vehicle (0.5% methylcellulose) or 4524-E7 (5 mg/kg). Blood glucose was monitored at different time points as indicated (n=5, *: P<0.05, two-way ANOVA). (E) Glucose tolerance test in ob/ob mice. The mice were starved for 12 hours and then orally administrated with vehicle or 4524-E7 (5 mg/kg). A bonus of glucose (2 gm/kg) was injected intraperitoneally 1 hour later. Blood glucose was then measured at 30 min intervals (n=13, *: P<0.05; **: P<0.01, two-way ANOVA).
C57B5L/6J mice were fasted for 12 h. […] In vivo hepatic glucose output was then determined by hyperinsulinemic-euglycemic clamp.

IR [2] = biological target: T1, IR; test: Cell-based ELISA of IR tyrosine phosphorylation in CHO-IR cells; parameters: expressed in transfected cells; host or cells: CHO (CHO-IR, gift from Dr. Nicholas Webster, UCSD)
Experimental: A cell-based screening assay was developed with Chinese hamster ovary cells stably transfected with IR (CHO-IR) by using an ELISA to determine the IR tyrosine phosphorylation. […] Other 1,4-Napthoquinones that are structurally related to 4524-E7 were evaluated.
CHO-IR cells were seeded in a 96-well plate at 15,000 cells per well in […] of 0.1% FBS medium with 0.1% FBS. […] Cells were lysed, and phosphorylated receptors were captured with pY20 immobilized on ELISA plates. Bound receptors were washed, then detected using an anti-IR beta antibody, followed by an horseradish peroxidase-conjugated secondary antibody and colorimetric detection with 3,3′,5,5′-tetramethylbenzidine.
A cell-based ELISA assay was developed with an IR stably transfected Chinese Hamster Ovary (CHO-IR) cell line. […] The cell lysates were subjected to the sandwich ELISA using immobilized anti-phosphotyrosine antibody and anti-IR antibody.
Target sequence in this assay (P06213 763-1382 limits assumed): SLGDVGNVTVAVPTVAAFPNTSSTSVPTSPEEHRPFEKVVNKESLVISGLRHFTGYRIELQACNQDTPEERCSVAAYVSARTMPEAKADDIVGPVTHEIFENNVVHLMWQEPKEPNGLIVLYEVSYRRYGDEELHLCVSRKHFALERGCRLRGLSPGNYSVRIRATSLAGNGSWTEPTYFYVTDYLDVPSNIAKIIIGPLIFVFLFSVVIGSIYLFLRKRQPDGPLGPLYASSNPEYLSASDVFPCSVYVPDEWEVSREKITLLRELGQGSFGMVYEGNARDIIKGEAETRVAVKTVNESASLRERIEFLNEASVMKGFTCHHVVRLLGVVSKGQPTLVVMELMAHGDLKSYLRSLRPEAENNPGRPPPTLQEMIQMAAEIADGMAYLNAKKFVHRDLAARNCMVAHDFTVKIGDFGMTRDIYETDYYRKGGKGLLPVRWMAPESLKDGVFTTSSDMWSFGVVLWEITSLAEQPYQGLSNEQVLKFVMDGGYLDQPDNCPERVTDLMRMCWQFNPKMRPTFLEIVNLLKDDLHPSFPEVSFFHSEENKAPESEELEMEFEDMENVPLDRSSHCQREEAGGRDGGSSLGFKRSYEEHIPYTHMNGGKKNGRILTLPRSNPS
Target sequence in this assay (P06213 28-758 limits assumed): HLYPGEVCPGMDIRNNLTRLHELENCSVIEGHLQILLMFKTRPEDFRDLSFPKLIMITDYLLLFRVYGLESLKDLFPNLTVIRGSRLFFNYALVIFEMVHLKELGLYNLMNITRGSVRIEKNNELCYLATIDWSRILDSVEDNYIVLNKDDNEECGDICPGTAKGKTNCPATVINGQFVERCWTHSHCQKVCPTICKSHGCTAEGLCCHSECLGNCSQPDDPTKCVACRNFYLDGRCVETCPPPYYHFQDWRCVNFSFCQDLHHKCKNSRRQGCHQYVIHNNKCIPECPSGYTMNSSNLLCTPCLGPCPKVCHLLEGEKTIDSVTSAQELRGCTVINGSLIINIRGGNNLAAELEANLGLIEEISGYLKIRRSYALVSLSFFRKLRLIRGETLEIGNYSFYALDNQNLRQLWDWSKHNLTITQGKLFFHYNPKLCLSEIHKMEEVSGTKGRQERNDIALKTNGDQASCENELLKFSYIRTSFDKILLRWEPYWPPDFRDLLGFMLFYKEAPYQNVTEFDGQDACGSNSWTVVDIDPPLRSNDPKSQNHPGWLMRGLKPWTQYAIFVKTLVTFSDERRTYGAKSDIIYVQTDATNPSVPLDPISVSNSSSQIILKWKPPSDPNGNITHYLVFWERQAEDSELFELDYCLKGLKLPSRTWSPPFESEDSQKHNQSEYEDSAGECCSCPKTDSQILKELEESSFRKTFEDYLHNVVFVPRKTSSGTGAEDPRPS

MCF7 cells = test: Proliferation of MCF7 cells; assay type: cell-based
IGFR-IR hybrid = test: His-tagged chimaeric receptor phosphorylation in CHO cells; assay type: cell-based, human; settings: 5 μM, 30 min
Experimental: (§1) (A) Chemical structure of 4524-E7. (B) Effect of 4524-E7 and other 1,4-naphthoquinone derivatives on IR phosphorylation in CHO-IR cells. CHO-IR cells were cultured in 96-well plates and treated with 5 μM compounds for 15 min at 37 C. Cells were lysed, and IR phosphorylations were tested by ELISA. The IR phosphorylation activities of the tested compounds were expressed as a percentage of the vehicle. (C) 4524-E7 and 1,4-naphthoquinone derivates activate IR and its downstream signaling in CHO-IR cells. […] The cell lysates were analyzed by immunoblotting with various indicated antibodies. The phosphorylated IR was immunoprecipitated using PY20 and analyzed by immunoblotting with anti-IR13 antibody. […] The phosphorylation of each receptor was determined by Western blot using specific antibodies as indicated. (E) 4524-E7 activates IR through its ICD. Upper panel: Diagram of chimaeric receptors. Lower panel: His-tagged wild-type IR, IGFR-IR, IR-IGFR, and IR-EGFR constructs were transfected into CHO cells followed vehicle or 5 μM 4524-E7 treatment for 30 min. Then the cells were lysated and the transfected receptor fused to His tag were pulled down with Ni+ beads, followed by western blot against anti-p-Tyr and anti-His. The cell lysates were tested with anti-p-Akt and anti-Akt.
(§2) The cDNA encoding wild type IR was introduced into the pcDNA3.1/V5-His-TOPO vector. […]

IR-IGFR = test: as above; assay type: cell-based, human; settings: 5 μM, 30 min
Experimental: as §1, §2

IGF-IR = biological target: T2, IGF-IR (Mus musculus, UniProt Q60751); test: IGF-IR activation in mouse muscle and liver; assay type: in vivo; settings: C57BL/6J mice, 20 mg/kg oral
T2 construct: from tissue; host or cells: muscle and liver of C57BL/6J mice
T2 sequence (Q60751 31-1373): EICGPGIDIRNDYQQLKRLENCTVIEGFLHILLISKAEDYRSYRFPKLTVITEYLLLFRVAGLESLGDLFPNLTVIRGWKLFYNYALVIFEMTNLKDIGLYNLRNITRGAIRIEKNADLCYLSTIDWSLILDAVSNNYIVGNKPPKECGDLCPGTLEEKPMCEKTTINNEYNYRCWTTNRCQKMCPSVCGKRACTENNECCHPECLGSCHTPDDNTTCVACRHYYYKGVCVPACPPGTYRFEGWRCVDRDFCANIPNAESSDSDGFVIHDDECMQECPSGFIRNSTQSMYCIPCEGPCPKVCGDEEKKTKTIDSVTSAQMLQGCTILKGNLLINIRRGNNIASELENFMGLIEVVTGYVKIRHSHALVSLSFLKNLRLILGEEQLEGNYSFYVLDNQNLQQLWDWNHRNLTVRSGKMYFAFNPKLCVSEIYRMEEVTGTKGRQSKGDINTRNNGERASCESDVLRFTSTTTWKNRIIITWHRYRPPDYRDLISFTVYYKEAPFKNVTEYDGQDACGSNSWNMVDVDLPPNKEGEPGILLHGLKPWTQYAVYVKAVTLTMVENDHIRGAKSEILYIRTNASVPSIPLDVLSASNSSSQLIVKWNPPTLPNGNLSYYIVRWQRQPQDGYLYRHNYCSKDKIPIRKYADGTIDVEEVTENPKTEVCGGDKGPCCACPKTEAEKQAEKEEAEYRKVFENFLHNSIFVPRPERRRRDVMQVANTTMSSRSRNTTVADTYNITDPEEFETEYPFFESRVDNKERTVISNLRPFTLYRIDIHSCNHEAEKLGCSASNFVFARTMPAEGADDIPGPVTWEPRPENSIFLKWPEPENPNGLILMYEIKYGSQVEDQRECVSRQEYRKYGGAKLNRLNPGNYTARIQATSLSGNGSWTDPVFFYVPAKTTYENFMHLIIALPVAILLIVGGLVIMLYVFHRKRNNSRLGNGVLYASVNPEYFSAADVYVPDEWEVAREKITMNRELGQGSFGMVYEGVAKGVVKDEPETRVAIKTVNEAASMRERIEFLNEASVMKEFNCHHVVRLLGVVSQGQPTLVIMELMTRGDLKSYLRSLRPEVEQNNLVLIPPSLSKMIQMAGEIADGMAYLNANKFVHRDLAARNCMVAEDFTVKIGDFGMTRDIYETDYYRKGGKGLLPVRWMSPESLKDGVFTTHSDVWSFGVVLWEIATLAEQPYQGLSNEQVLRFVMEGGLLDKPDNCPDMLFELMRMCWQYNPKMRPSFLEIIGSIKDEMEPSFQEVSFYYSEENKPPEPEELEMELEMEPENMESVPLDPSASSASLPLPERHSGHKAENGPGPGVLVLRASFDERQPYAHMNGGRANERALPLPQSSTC

Compound | IR activation (IR [1]) | insulin-stimulated suppression of hepatic glucose output (C57B5L/6J mice) | IR phosphorylation (IR [2]; 5 μM, 15 min, CHO-IR cells, ELISA) | concentration at which IR activation peaked (IR [2]; 15 min, dose-response) [µM] | concentration at which IR activation started (IR [2]; 15 min, dose-response) [µM] | time at which IR activation is triggered (IR [2]; 4524-E7 5 μM or insulin 50 nM) [min] | time at which IR activation peaked (IR [2]; 4524-E7 5 μM or insulin 50 nM) [min] | proliferation of MCF7 cells (MCF7 cells) | tyrosine phosphorylation of chimaeric receptor (IGFR-IR hybrid) | tyrosine phosphorylation of chimaeric receptor (IR-IGFR) | IGF-IR activation in muscle or liver (IGF-IR)
O=C1c2ccccc2C(=O)C2SC(Nc3ccc(Cl)cc3)=NC12 (centres unmarked) [4524-E7, 2-((4-chlorophenyl)amino)naphtho[2,3-d]thiazole-4,9(3aH,9aH)-dione] | selectively activated | potentiated the insulin actions in suppressing hepatic glucose output | about 250 % of basal level | 10 | 2.5 | 5 | 30 | not able to induce the proliferation of MCF7 cells | selective tyrosine phosphorylation | not phosphorylated | 
CC(=O)Oc1ccc(OC(C)=O)c2c1C(=O)C(Cl)=C(Cl)C2=O [DDN, 5,8-diacetyloxy-2,3-dichloro-1,4-naphthoquinone] |  |  |  |  |  |  |  |  |  |  | did not stimulate IGF-IR activation
